Experimental data reported in patent US20250074895A1, “CDK2 INHIBITORS AND METHODS OF MAKING AND USING SAME” (BLUEPRINT MEDICINES CORPORATION, priority 2021, published 2025).

Tests used:
[1] = molecular target: CDK2/Cyclin E (Homo sapiens (Human), UniProt P24941); test: Biochemical CDK inhibition assay (Caliper mobility shift), CDK2/Cyclin E; details: 1.0 mM ATP or ATP Km, 1.25 nM enzyme, apparent IC50, read-out: CDK2/cyclin E1 IC50
Experimental: (§1) Inhibitory effects of the compounds of the disclosure were measured in biochemical assays that measure the enzymatic phosphorylation activity of CDK enzyme in complex of Cyclin proteins phosphorylates 7.5 micromolar fluorescently labelled peptide substrate, 5-FAM-QSPKKG-CONH2, (FL-Peptide 18, Perkin Elmer, 760362) in the presence of adenosine-5′-triphosphate (ATP) and varying concentrations of the test compound in 100 mM 2-[4-(2-hydroxyethyl)piperazin-1-yl]ethanesulfonic acid (HEPES), pH 7.5, 10 mM MgCl2, 0.015% Brij-35, 1 mM dithiothreitol (DTT), 1.0% dimethylsulfoxide (DMSO). Assays were performed at 1.0 mM ATP or at ATP Km of the CDK enzymes in complex with Cyclin proteins. Reactions proceeded until between 10% to 20% total peptides were phosphorylated at room temperature (25° C.) and were terminated with 35 mM 2,2′,2″,2′″-(ethane-1,2-diyldinitrilo)tetraacetic acid (EDTA). Product was detected using the Caliper mobility shift detection method where the phosphorylated peptide (product) and substrate were electrophoretically separated and measured. Percent activity was plotted against log concentration of compound and points to generate an apparent IC50. The following CDK enzymes in complex with different cyclin proteins were used in these assays: • CDK1/Cyclin B1, GST-tag (BPS, 40454), 1.5 nM used in the assay • CDK2/Cyclin E (Eurofins, 14-475), 1.25 nM used in the assays
(§2) For inhibitory activity against CDK2/Cyclin […], the following designations are used: ≤10 nM=A; >10-20 nM=B; >20-30 nM=C; >30-100 nM=D and >100=E. For inhibition CDK1/Cyclin B1, GST-tag: ≥500 nM=A; 100-<500 nM=B; <100 nM=C.

[2] = molecular target: CDK1/Cyclin B1, GST-tag (Homo sapiens (Human), UniProt P06493); test: Biochemical CDK inhibition assay (Caliper mobility shift), CDK1/Cyclin B1; details: 1.0 mM ATP or ATP Km, 1.5 nM enzyme, apparent IC50
Experimental: as §1, §2

CDK1/Cyclin B1, GST-tag, sequence (P06493 whole entry): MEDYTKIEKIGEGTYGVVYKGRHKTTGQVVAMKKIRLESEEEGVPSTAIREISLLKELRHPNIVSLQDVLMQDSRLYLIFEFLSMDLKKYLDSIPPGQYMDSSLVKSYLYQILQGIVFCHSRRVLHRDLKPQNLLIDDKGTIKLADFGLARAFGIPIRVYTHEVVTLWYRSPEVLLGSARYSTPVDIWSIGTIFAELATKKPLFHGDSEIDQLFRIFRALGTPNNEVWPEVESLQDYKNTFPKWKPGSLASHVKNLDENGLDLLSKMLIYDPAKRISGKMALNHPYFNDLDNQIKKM
CDK1/Cyclin B1, GST-tag, sequence (P14635 whole entry partner): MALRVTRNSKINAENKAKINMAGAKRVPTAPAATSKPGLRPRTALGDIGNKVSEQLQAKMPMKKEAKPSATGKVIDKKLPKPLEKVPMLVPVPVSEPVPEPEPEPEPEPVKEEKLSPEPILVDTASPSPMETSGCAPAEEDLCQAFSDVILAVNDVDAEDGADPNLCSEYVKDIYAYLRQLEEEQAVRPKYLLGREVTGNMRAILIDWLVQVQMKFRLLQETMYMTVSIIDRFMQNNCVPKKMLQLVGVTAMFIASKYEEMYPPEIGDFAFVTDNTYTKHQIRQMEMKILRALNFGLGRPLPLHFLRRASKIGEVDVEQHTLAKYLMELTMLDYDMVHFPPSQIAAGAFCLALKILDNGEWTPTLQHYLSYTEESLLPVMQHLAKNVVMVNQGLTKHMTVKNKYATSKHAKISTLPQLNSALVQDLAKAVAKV

SMILES	IC50 [1] [nM]	IC50 [2] [nM]
CC(C)(O)c1cnc(Nc2cc([C@H]3CC[C@@H](OC(=O)N4CCC4(C)C)C3)[nH]n2)cn1 [Example 50, (1R,3S)-3-(3-((5-(2-hydroxypropan-2-yl)pyrazin-2-yl)amino)-1H-pyrazol-5-yl)cyclopentyl 2,2-dimethylazetidine-1-carboxylate]	≤ 10	< 100
CC(C)NC(=O)O[C@@H]1CC[C@H](c2cc(Nc3cnc(C#N)cn3)n[nH]2)C1 [Example 53, (1R,3S)-3-(3-((5-cyanopyrazin-2-yl)amino)-1H-pyrazol-5-yl)cyclopentyl isopropylcarbamate]	≤ 10	100 to 500
CNC(=O)O[C@@H]1CC[C@H](c2cc(Nc3cncc(OCC4CC4)n3)n[nH]2)C1 [Example 56, (1R,3S)-3-(3-((6-(cyclopropylmethoxy)pyrazin-2-yl)amino)-1H-pyrazol-5-yl)cyclopentyl methylcarbamate]	≤ 10	< 100
